Measured values taken from patent US20100010034A1, “CRTH2 ANTAGONISTS” (priority 2006, published 2010).

Key:
[1] = rats, exogenously applied agonist (Shirashi et al 2005); cited from earlier work
CRTH2 receptor [2] = molecular target: T1, CRTH2 receptor (Homo sapiens, UniProt Q9Y5Y4); experiment: Calcium mobilisation (flux) functional assay; assay type: cell-based; parameters: expressed in transfected cells; details: CHO-K1 cells co-expressing CRTH2 receptor and Gα16; PGD2 agonist at EC80
T1 sequence (Q9Y5Y4 1-395): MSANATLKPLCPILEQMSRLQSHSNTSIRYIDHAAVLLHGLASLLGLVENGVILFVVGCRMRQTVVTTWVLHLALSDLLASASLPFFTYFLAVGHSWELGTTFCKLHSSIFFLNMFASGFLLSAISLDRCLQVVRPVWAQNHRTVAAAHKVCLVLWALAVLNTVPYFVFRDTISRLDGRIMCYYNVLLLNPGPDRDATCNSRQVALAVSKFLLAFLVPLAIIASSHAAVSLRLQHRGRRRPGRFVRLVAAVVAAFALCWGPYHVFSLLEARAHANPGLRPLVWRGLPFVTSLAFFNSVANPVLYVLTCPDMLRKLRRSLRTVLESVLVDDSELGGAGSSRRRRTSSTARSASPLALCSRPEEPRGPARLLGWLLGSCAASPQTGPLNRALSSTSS
Protocol: Calcium Mobilisation (Flux) Assay
Stable CHO-K1 cells co-expressing the CRTH2 receptor and the G-protein Gα16 are seeded (40,000 cells per well in a plating volume of 75 μL in F-12 Hams supplemented with 1% foetal bovine serum) into collagen-coated 96-well plates 24 hours prior to the assay. The cells are then loaded with a fluorescence-imaging plate reader (FLIPR) calcium kit dye (Calcium 3 kit, Molecular Devices Ltd) containing 5 mM final concentration of probenecid and incubated at 37° C. for 1 hour in a 5 % CO2 atmosphere. The fluorescence emission caused by intracellular calcium mobilization elicited by the PGD2 at the CRTH2 receptor is determined with a FLEXstation benchtop scanning and integrated fluid transfer workstation (Molecular Devices Ltd). To detect antagonists and determine compound IC50, compounds are pre-incubated at varying concentrations with the loaded cells for 15 minutes at 37° C., 5 % CO2, prior to the addition of the agonist at its EC80 value. Compounds and agonist are added in Hanks balanced salt solution containing 20 mM HEPES and 0.1% BSA). The fractional response values for each well are calculated by subtracting the basal response from the peak response. Results are calculated as the mean of triplicate wells using Excel and XLfit (Microsoft).

CRTH2 receptor [3] = molecular target: T1, CRTH2 receptor; experiment: CRTH2 Radioligand Binding assay ([3H]-PGD2 displacement, SPA); parameters: expressed in transfected cells; host or cells: HEK cell membranes; details: HEK cell membranes expressing the CRTH2 receptor, 1 nM [3H]-PGD2; Ki from IC50 by Cheng-Prusoff
Protocol: Radioligand Binding Assay
The receptor binding assay is performed in a final volume of 200 μL binding buffer [10 mM BES (pH 7.4), 1 mM EDTA, 10 mM manganese chloride, 0.01% BSA] and 1 nM [^3H]-PGD2 (Amersham Biosciences UK Ltd). Ligands are added in assay buffer containing a constant amount of DMSO (1% by volume). Total binding is determined using 1% by volume of DMSO in assay buffer and non-specific binding is determined using 10 μM of unlabeled PGD2 (Sigma). Human embryonic kidney (HEK) cell membranes (3.5 μg) expressing the CRTH2 receptor are incubated with 1.5 mg wheatgerm agglutinin SPA beads and 1 nM [^3H]-PGD2 (Amersham Biosciences UK Ltd) and the mixture incubated for 3 hours at room temperature. Bound [^3H]-PGD2 is detected using a Microbeta TRILUX liquid scintillation counter (Perkin Elmer). Compound IC50 value is determined using a 6-point dose response curve in duplicate with a semi-log compound dilution series. IC50 calculations are performed using Excel and XLfit (Microsoft), and this value is used to determine a Ki value for the test compound using the Cheng-Prusoff equation.

Which pulmonary eosinophilia [1] does the source give for `O=C(O)CCC/C=C\C[C@@H]1[C@@H](/C=C/[C@@H](O)COc2ccc(I)cc2)[C@H]2CC[C@@H]1O2` [I-BOP] here?
Its pulmonary eosinophilia is “no effect”.

With `CCS(=O)(=O)c1ccc(Sc2c(C)c(CC(=O)O)c3ccc(F)cn23)cc1` [Example 5, [3-(4-ethanesulfonylphenylsulfanyl)+fluoro-2-methylindolizin-1-yl]acetic acid] as the compound, how does the IC50 (CRTH2 receptor [2]) read?
The IC50 was 8.9 nM.

What about the Ki (CRTH2 receptor [3]) of the same compound?
The Ki was 0.8 nM.

With `O=C(O)CCCCCCC1C(=O)NC(=O)N1CCC(O)C1CCCCC1` (stereo not drawn) [BW 245C] as the compound, how does the pulmonary eosinophilia [1] read?
Its pulmonary eosinophilia is “no effect”.

For `Cc1c(CC(=O)O)c2ccc(C#N)cn2c1Cc1ccc2cc(F)ccc2n1` [Example 12, [6-cyano-3-(6-fluoroquinolin-2-ylmethyl)-2-methylindolizin-1-yl]acetic acid], which Ki (CRTH2 receptor [3]) is on record?
Its Ki is 7.2 nM.

Which Ki (CRTH2 receptor [3]) does the source give for `COc1ccc(Sc2c(C)c(CC(=O)O)c3ccc(F)cn23)cc1` [Example 13, [6-fluoro-3-(4-methoxyphenylsulfanyl)-2-methylindolizin-1-yl]acetic acid] here?
Its Ki is 44 nM.

For `Cc1c(CC(=O)O)c2cc(Cl)c(F)cn2c1Sc1ccc(S(C)(=O)=O)cc1` [Example 8, [7-chloro-6-fluoro-3-(4-methanesulfonylphenylsulfanyl)-2-methylindolizin-1-yl]acetic acid], which Ki (CRTH2 receptor [3]) is on record?
The Ki was 0.4 nM.

Which IC50 (CRTH2 receptor [2]) does the source give for `Cc1c(CC(=O)O)c2ccc(F)cn2c1Sc1ccc(S(C)(=O)=O)cc1F` [Example 2, [6-fluoro-3-(2-fluoro-4-methanesulfonylphenylsulfanyl)-2-methylindolizin-1-yl]acetic acid] here?
The IC50 was 6.6 nM.

And the Ki (CRTH2 receptor [3])?
The Ki was 0.2 nM.

Which Ki (CRTH2 receptor [3]) does the source give for `Cc1c(CC(=O)O)c2cc(C#N)ccn2c1Cc1ccc(Cl)cc1` [Example 11, [3-(4-chlorobenzyl)-7-cyano-2-methylindolizin-1-yl]acetic acid] here?
The Ki was 26 nM.

Which Ki (CRTH2 receptor [3]) does the source give for `Cc1c(CC(=O)O)c2cc(C#N)ccn2c1Sc1ccc(S(C)(=O)=O)cc1Cl` [Example 9, [3-(2-chloro-4-methanesulfonylphenylsulfanyl)-7-cyano-2-methylindolizin-1-yl]acetic acid] here?
Its Ki is 2.9 nM.

With `Cc1c(CC(=O)O)c2ccc(F)cn2c1Sc1ccc(Cl)cc1Cl` [Example 1, [3-(2,4dichlorophenylsulfanyl)-6-fluoro-2-methylindolizin-1-yl]acetic acid] as the compound, how does the Ki (CRTH2 receptor [3]) read?
The Ki was 27 nM.

Which IC50 (CRTH2 receptor [2]) does the source give for `Cc1c(CC(=O)O)c2ccc(F)cn2c1Sc1ccc(S(C)(=O)=O)cc1C(F)(F)F` [Example 3, [6-fluoro-3-(4-methanesulfonyl-2-trifluoromethylphenylsulfanyl)-2-methylindolizin-1-yl]acetic acid] here?
The IC50 was 11 nM.

What about the Ki (CRTH2 receptor [3]) of the same compound?
Its Ki is 0.9 nM.

For `CCS(=O)(=O)Nc1ccc(S(=O)(=O)c2c(C)c(CC(=O)O)c3ccc(F)cn23)cc1` [Example 7], which Ki (CRTH2 receptor [3]) is on record?
Its Ki is 47 nM.

With `Cc1c(CC(=O)O)c2ccc(F)cn2c1Sc1ccc(S(=O)(=O)NC2CC2)cc1` [Example 16, [3-(4-cyclopropylsulfamoylphenylsulfanyl)-6-fluoro-2-methylindolizin-1-yl]acetic acid] as the compound, how does the IC50 (CRTH2 receptor [2]) read?
The IC50 was 22 nM.

And the Ki (CRTH2 receptor [3])?
The Ki was 0.6 nM.

For `COc1ccc(Sc2c(C)c(CC(=O)O)c3cc(Cl)c(F)cn23)cc1` [Example 14, [7-chloro-6-fluoro-3-(4-methoxyphenylsulfanyl)-2-methylindolizin-1-yl]acetic acid], which Ki (CRTH2 receptor [3]) is on record?
Its Ki is 23 nM.

Which Ki (CRTH2 receptor [3]) does the source give for `Cc1c([C@@H](C)C(=O)O)c2ccc(F)cn2c1Sc1ccc(S(C)(=O)=O)cc1` [Example 4, (R)-2-[6-fluoro-3-(4-methanesulfonylphenylsulfanyl)-2-methylindolizin-1-yl]propionic acid] here?
The Ki was 29 nM.

For `Cc1c(CC(=O)O)c2ccc(C#N)cn2c1Cc1ccc(S(C)(=O)=O)cc1` [Example 10, [6-cyano-3-(4-methanesulfonylbenzyl)-2-methylindolizin-1-yl]acetic acid], which Ki (CRTH2 receptor [3]) is on record?
The Ki was 1.7 nM.

With `Cc1c([C@H](C)C(=O)O)c2ccc(F)cn2c1Sc1ccc(S(C)(=O)=O)cc1` [Example 6, (S)-2-[6-fluoro-3-(4-methanesulfonylphenylsulfanyl)-2-methylindolizin-1-yl]propionic acid] as the compound, how does the Ki (CRTH2 receptor [3]) read?
Its Ki is 57 nM.
